Laboratory results as given in paper PMC12459314, “Subcutaneous administration of a novel TRPM8 antagonist reverses cold hypersensitivity while attenuating the drop in core body temperature” (British journal of pharmacology, 2024).
Where “and” joins values, the source holds several entries; their conditions need not be identical. Equal values may be shown once.

Experiments:
[1] = Core body temperature and home cage activity by radiotelemetry (s.c., i.p.); format: in vivo, mouse
Experimental: Male and female C57Bl6J (Jackson Laboratories, Bar Harbor, USA, 8–12 weeks of age, 4 M:3F) were anaesthetised with isoflurane (2%–3% in 100% oxygen), and an HDX11 telemetry unit (Data Sciences) was inserted into the peritoneal cavity through a ventral midline incision. Animals were treated with buprenex (0.05 mg·kg^−1, s.c.every 8 h for 72 h) and enrofloxacin (2 mg·kg^−1, s.c.) and single-housed in a reverse light–dark cycle room (lights off 10 AM–10 PM). Mice were handled every day to acclimatise to injections, and experiments began 1 week later. All injections were performed between 1 and 2 PM. […] Body temperature was averaged into 5-min bins, whereas activity data were summed for the 5-min bin.

[2] = molecular target: T1, human TRPA1 (Homo sapiens, UniProt O75762); test: FlexStation Ca2+ flux assay in HEK293T cells transfected with human TRPA1; format: cell-based
T1 construct: expressed in transfected cells; host or cells: HEK293T
T1 sequence (O75762 whole entry): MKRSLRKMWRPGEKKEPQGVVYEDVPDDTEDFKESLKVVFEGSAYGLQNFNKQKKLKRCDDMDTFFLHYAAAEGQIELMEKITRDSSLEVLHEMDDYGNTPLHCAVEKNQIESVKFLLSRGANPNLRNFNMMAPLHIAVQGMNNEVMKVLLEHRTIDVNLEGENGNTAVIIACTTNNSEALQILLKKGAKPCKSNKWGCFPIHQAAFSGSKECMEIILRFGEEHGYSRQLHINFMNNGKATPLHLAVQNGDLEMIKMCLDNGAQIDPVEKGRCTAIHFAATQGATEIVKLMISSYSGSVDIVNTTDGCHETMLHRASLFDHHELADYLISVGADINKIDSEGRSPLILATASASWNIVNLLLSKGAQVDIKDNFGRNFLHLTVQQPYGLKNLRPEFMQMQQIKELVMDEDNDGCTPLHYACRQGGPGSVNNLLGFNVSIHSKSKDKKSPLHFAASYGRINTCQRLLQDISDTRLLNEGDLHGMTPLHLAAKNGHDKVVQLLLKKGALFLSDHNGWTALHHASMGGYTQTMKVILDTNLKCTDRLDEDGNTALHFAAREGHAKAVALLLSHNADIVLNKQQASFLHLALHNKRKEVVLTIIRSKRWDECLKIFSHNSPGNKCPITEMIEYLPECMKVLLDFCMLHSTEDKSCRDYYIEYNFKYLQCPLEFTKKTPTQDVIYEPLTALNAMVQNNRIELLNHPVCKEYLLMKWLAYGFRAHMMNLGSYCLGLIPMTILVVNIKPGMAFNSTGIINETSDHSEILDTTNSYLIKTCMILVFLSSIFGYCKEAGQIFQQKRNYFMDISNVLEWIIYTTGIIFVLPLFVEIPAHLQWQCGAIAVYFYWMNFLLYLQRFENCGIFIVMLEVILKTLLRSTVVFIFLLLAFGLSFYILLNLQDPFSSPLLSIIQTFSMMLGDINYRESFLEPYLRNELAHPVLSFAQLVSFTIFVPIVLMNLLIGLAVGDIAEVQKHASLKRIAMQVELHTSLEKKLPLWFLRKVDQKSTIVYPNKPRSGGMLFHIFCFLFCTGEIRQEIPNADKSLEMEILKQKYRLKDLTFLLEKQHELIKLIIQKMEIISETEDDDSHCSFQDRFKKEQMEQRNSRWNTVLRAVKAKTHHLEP
Experimental: (§1) The human embryonic kidney cell line (HEK293T, CRL-1573, RRID: CVCL_0045) was purchased from the American Type Culture Collection (Manassas, USA) and was maintained in Dulbecco’s Minimal Essential Medium (DMEM, Cellgro10013CV, Corning, Tewksbury, USA) that was supplemented with 10% fetal bovine serum (Gemini Bio-products), 2-mM L-glutamine (Invitrogen) and 100 U/mL penicillin and streptomycin (Invitrogen) and cultured in an incubator at 37°C, 5% CO2 and 95% humidity. Human TRPV1 and TRPA1 plasmid DNA (gift from D. Julius) were transiently bulk transfected individually into HEK293T cells using the FuGene HD transfection reagent (TFR, Promega, Madison, WI, USA) at a 3:1 ratio (TFR:DNA). Transfected cells were seeded at 10,000 cells per well in a volume of 25 μl into black walled collagen coated 384-well microtiter plates and cultured in an incubator at 37°C, 5% CO2 and 95% humidity for 48 h prior to the initiation of calcium mobilization experiments performed on a FlexStation 3 (Molecular Devices, Sunnyvale, CA, USA) platform equipped with a 16-channel robotic pipettor head and FLIPR tetra pipette tips. At 46 h post transfection, cell monolayers were preloaded with 25 μl of the FLIPR Calcium 6 dye (Molecular Devices) for 2 h in an incubator at 37°C, 5% CO2 and 95% humidity according to the manufacturer’s instructions. The plate was transferred to a FlexStation 3 microplate reader. Relative fluorescence units (RFUs) (Ex. 485 nm, Em 525 nm) were then acquired at 37°C in the kinetic mode. The run time for the agonist (1st) and antagonist (2nd) reads were 60 s each, for a total run time of 120 s, with an interval of 3.1 s between reads in the same well to allow all 16 wells in a column to be read sequentially, and the photomultiplier tube (PMT) level was set at medium, with 6 flashes per read. Baseline Fluo-6 RFUs were acquired for 18 s prior to the addition of compound in both the agonist and antagonist reads. For the first addition agonist read, the volume in the well was 50 μl, the pipette height was set at 40 μl, and 12.5 μl of the test compound was delivered at a speed of 2 μl·s^−1 after the baseline RFU’s acquisition period at 19 s, and the RFUs were acquired for an additional 41 s. For the second addition antagonist read, the volume in the well was 62.5 μl, the pipette height was set at 40 μl, and 12.5 μl of an EC80 agonist concentration was delivered at a speed of 2 μl/s after the baseline RFU’s acquisition period at 19 s, and the RFUs were acquired for an additional 41 s. The FlexStation 3 instrument settings, automated pipetting and data collection were all controlled by the SoftMax Pro software, version 7.1.2.
To analyse the agonist and antagonist Ca^2+ mobilization Fluo-6 RFU’s kinetic data, the RFU’s readings acquired throughout the 60-s acquisition period for each individual well were divided by the average RFU values acquired during the first 18-s baseline acquisition period from the same well to calculate a fold over baseline (FOB) ratio.

[3] = tested on: 78 recombinant human targets; test: SAFETYscan E/IC50 ELECT panel of 78 assays; conditions: 10 concentrations, 0.005 to 100 μM; single experiment
Experimental: (§2) Assessment of the safety profile of VBJ103 across 78 assays using recombinant human targets was performed with the SAFETYscan E/IC50 ELECT service by Eurofins DiscoverX (San Diego, CA, USA). Data represent a single experiment and therefore should be considered preliminary. The assays were performed utilizing PathHunter enzyme fragment complementation (EFC) technology, FLIPR®-based cellular screening assays, KINOMEscan kinase binding assays and a variety of enzymatic assays. Further potential functional activity at opioid receptors was performed in the gpcrSCAN service by Eurofins DiscoverX. Hit Hunter® cAMP assays were carried out using Enzyme Fragment Complementation (EFC) with β-galactosidase (β-Gal) as the functional reporter.

[4] = molecular target: T2, μ opioid receptor (OPRM1) (Homo sapiens, UniProt P35372); test: Eurofins DiscoverX opioid receptor assays (SAFETYscan; HitHunter cAMP), OPRM1; format: cell-based
T2 construct: purchased Eurofins DiscoverX (SAFETYscan; gpcrSCAN; HitHunter cAMP XS+)
T2 sequence (P35372 whole entry): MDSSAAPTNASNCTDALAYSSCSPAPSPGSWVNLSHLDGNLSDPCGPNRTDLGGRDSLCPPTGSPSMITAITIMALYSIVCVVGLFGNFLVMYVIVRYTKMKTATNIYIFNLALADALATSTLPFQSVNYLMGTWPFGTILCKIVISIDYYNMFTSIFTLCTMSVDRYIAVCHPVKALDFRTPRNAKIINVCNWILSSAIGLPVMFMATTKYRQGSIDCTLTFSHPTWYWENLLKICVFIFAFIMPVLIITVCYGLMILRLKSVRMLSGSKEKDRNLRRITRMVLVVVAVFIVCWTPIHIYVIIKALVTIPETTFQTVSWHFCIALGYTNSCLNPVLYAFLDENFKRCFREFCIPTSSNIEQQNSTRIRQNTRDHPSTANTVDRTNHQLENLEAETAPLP
Experimental: as §2, with “Data represent a single experiment and therefore should be considered preliminary.” left out
Assessment of potential positive allosteric modulator (PAM) activity at μ, δ and κ opioid receptors was performed with the DiscoverX HitHunter cAMP XS+ assay by Eurofins DiscoverX (San Diego, CA, USA).

[5] = tested on: TRPM8; parameters: method as in Journigan et al., 2020; conditions: 30 mg·kg−1, s.c.; ref Journigan et al., 2020; cited from earlier work
[6] = molecular target: T3, human TRPV1 (Homo sapiens, UniProt Q8NER1); test: FlexStation Ca2+ flux assay in HEK293T cells transfected with human TRPV1; format: cell-based
T3 construct: expressed in transfected cells; host or cells: HEK293T
T3 sequence (Q8NER1 whole entry): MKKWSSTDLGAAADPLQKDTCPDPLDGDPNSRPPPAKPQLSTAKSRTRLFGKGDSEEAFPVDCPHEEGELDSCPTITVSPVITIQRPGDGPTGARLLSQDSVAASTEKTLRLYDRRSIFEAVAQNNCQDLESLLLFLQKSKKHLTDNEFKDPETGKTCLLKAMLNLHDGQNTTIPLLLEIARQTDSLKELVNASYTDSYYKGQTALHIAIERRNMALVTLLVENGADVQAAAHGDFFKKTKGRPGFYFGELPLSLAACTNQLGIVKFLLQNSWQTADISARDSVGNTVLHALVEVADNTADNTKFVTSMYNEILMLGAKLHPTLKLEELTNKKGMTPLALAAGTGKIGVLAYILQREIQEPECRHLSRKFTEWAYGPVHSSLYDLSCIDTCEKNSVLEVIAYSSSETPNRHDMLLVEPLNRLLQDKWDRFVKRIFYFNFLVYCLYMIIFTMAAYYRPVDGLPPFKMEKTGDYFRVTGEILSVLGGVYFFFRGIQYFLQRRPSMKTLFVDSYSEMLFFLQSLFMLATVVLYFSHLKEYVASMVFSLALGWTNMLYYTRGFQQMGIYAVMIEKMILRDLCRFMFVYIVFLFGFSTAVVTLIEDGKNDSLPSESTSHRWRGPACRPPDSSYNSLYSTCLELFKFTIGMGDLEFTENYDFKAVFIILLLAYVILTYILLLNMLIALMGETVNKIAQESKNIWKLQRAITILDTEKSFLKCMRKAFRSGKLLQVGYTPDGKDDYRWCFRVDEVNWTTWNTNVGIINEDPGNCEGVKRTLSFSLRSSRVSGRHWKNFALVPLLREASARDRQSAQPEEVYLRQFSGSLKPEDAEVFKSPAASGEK
Experimental: as §1, with “Transfected cells were seeded at 10,000 cells per well in a volume of 25 μl into black walled collagen coated 384-well microtiter plates and cultured in an incubator at 37°C, 5% CO2 and 95% humidity for 48 h prior to the initiation of calcium mobilization experiments performed on a FlexStation 3 (Molecular Devices, Sunnyvale, CA, USA) platform equipped with a 16-channel robotic pipettor head and FLIPR tetra pipette tips. At 46 h post transfection, cell monolayers were preloaded with 25 μl of the FLIPR Calcium 6 dye (Molecular Devices) for 2 h in an incubator at 37°C, 5% CO2 and 95% humidity according to the manufacturer’s instructions.” left out, “The FlexStation 3 instrument settings, automated pipetting and data collection were all controlled by the SoftMax Pro software, version 7.1.2.” left out

## O=C(NC1CCC2(CCCC2)CC1)c1ccc(-c2ccccc2)cc1 [VBJ103, N-(Spiro[4.5]decan-8-yl)-[1,1′-biphenyl]-4-carboxamide]
[1]; 3 mg·kg−1 i.p.
  drop in CBT versus vehicle: not different
[1]; 3 mg·kg−1 s.c.
  time for CBT to return to baseline values: 223 ± 25 min
[1]; 10 mg·kg−1 s.c.
  time for CBT to return to baseline values: 262 ± 48 min
[1]; 30 mg·kg−1 s.c.
  time for CBT to return to baseline values: 380 ± 59 min
[1]; 3, 10 and 30 mg·kg−1 s.c.
  change in home cage activity: without any significant change
[1]; 3, 10 and 30 mg·kg−1 s.c., over 180 min
  fall in CBT: 1–2 °C and 2 °C
[1]; 3, 10 or 30 mg·kg−1 i.p.
  change in home cage activity: no detectable change
  fall in CBT: dose-dependent fall
  time of peak fall in CBT: ≤ 60 min
[1]; 10 and 30 mg·kg−1 i.p.
  drop in CBT versus 3 mg·kg−1 and vehicle: significantly greater
[1]; 100 and 300 mg·kg−1 s.c.
  CBT or home cage activity compared to vehicle: did not alter
[2]; Figure 1g experiment, without HC-030031
  EC50: 960 nM and 955 nM
[2]; against an EC80 concentration (10 μM) of AITC
  antagonist activity at TRPA1: no detectable antagonist activity
[2]; agonist read
  EC50: 1040 nM and > 1000 nM
[2]; with versus without HC-030031 (10 μM)
  shift in TRPA1 EC50: 3.2 fold
[3]
  effects across the safety panel: only dose-dependent effect detected
[4]; OPRM1, Positive Allosteric Modulator format, read-out: Max Response, cAMP
  Emax: 14.5%
[4]; read-out: RC50 (EC50), cAMP
  EC50: > 100 µM
[4]; safety panel
  activity at μ opioid receptor: no activity
[5]
  icilin-induced wet dog shaking (WDS) behaviour: suppresses
[6]; compound alone
  agonist activity at TRPV1: no apparent agonist activity
[6]; evoked with an EC80 concentration (0.1 μM) of capsaicin
  inhibition of the Ca2+ signal at TRPV1: Nor was there a detectable inhibition
